Counter-ions that a name gives are not always drawn. No end group written: not given here.
What was measured:
ALS model mice = conditions: background statement; cited from earlier work
ALS patients = conditions: background statement, cited from earlier work
NSC34-SOD1-G93A cell = assay type: cell-based, mice
Experimental: The action of the said NHK1 peptide upon the complex VDAC1/SOD1-G93A, i.e. the complex formed by the interaction between protein VDAC1 and the mutant enzyme SOD1 (exactly the mutant G93A, where the glycine 93 was replaced by alanine) was evaluated by in vitro and in cellulo experiments, i.e. in the NSC34 cell line. NSC34 is a hybrid cell line obtained by fusing mice motor neurons with neuroblastoma cells. The NSC34 cell line is widely recognized as cell model of motor neurons and, following its transfection with mutated SOD1, it is considered a reference model of ALS [Cashman N R et al. Neuroblastoma×spinal cord (NSC) hybrid cell lines resemble developing motor neurons. Dev. Dyn. […]
The MTT assay is a colorimetric assay aimed to quantify the activity of dehydrogenase enzymes reducing 3-(4,5-dimethyltiazol-2-yl)-2,5-diphenyltetrazolium, yellow, to purple-blue formazan [Mosmann T., Rapid colorimetric assay for cellular growth and survival: application to proliferation and cytotoxicity assays. […]
Cells were seeded on 24-wells plates at a density of 80,000 cells/well, incubated for 24 hours and then transiently transfected with plasmid pEGFP-N1 expressing SOD1WT or SOD1-G93A or a mock. […] The MTT assay was read after 24 hours incubation. […]
The same vitality assay was repeated in the presence of the NHK1 peptide. […] The MTT assay was read after 24 hours incubation. […]

Row | Compound | Efficacy in ALS (ALS patients) | further results
1 | C#Cc1cnc2nc(O)n(C(CC)CC)c2n1 [Tirasemvit] | – | Improvement of skeletal muscle strength (ALS model mice): did not confirm such ability
2 | CCCCCCCCc1ccc(CCC(N)(CO)CO)cc1 [Fingolimid] | does not show any activity in ALS | –
3 | O=S(=O)(c1cccc2cnccc12)N1CCCNCC1 [Fasudil hydrochloride] | inefficacy in ALS | –
4 | Cc1ccc(NC(=O)c2ccc(CN3CCN(C)CC3)cc2)cc1Nc1nc(-c2cccnc2)cs1 [Masitinib] | inefficacy in ALS | –
5 | O=C([O-])[O-].[Li+].[Li+] [Lithium carbonate] | no influence on disease progression and survival | –
6 | CCCN[C@@H]1CCc2nc(N)sc2C1 [Dexpramipexole] | lacks any efficacy in ALS patients | –
7 | IAAQLLAYYFT [NHK1, Isoleucine-Alanine-Alanine-Glutamine-Leucine-Leucine-Alanine-Tyrosine-Tyrosine-Phenylalanine-Threonine] | – | Toxicity for the cell (NSC34-SOD1-G93A cell): not toxic at all
8 | Nc1nc2ccc(OC(F)(F)F)cc2s1 [Riluzole] | – | Extension of life expectation (ALS patients; ALS, statistical analysis): about three months

Reference: US10800811B2, “Pharmacologically active peptide compound, process for the preparation and use thereof” (Dipartimento di Scienze Biomediche e Biotecnologiche, priority 2016, dated 2020)
